Laboratory results taken from patent US20240245677A1, “SELECTED COMPOUNDS FOR TARGETED DEGRADATION OF BRD9” (C4 THERAPEUTICS, INC., priority 2021, published 2024).

Assays:
[1] = Hygroscopicity by DVS at 25° C.; type: physicochemical; conditions: DVS 25° C., from 40% RH to 70% RH
Procedure: Hygroscopicity of Form A and Form N was investigated by DVS at 25° C. […] Form A converted to Form K after the DVS test. Form K is a metastable hydrate. It reverted back to Form A after exposure to ambient condition.
Hygroscopicity of the free base Pattern A* and the urea cocrystal Form P were evaluated by DVS at 25° C.

[2] = Bulk stability study (1 week stress conditions; drying); conditions: 25° C./92% RH open vial, 40° C./75% RH open vial or 60° C. closed vial, 1 week
[3] = Compression and ball-milling experiments; type: physicochemical
Procedure: Feasibility of formulation processes was evaluated with compression and ball-milling experiments. […] However, the hydrate Form N is sensitive to pressure.

[4] = Equilibration with solvents at 50° C. for 1 week (XRPD); type: physicochemical
Procedure: The obtained suspension was filtered through a 0.45 μm nylon membrane filter by centrifugation at 14,000 rpm for 5 min. Solid parts (wet cakes) were investigated by XRPD immediately. For samples with different XRPD results, additional analysis including HPLC, DSC, TGA, ^1H-NMR and KF was performed. Some samples with Form K were exposure to ambient condition and investigated by XRPD again.

[5] = Equilibration under a temperature cycle (XRPD); type: physicochemical
Procedure: Obtained suspension was filtered through a 0.45 μm nylon membrane filter by centrifugation at 14,000 rpm for 5 min. Solid parts (wet cakes) were investigated by XRPD immediately. For samples with different XRPD results, additional analysis including HPLC, DSC, TGA, ^1H-NMR and KF was performed. Some samples with Form K were exposure to ambient condition and investigated by XRPD again.

[6] = Approximate solubility in solvents at 25° C. and 50° C. (visual observation); type: physicochemical; conditions: for Solubility (mg/mL), 25° C.: target conc. = 250 mg/mL; for Solubility (mg/mL), 50° C.: target conc. = 500 mg/mL
Procedure: Max. volume of each solvent added was 1 mL. Approximate solubility was determined by visual observation.
Max volume of each solvent added was 1 mL. Approximate solubility was determined by visual observation.

[7] = Equilibration with solvents at 25° C. for 2 weeks (XRPD); type: physicochemical
Procedure: Obtained suspension was filtered through a 0.45 μm nylon membrane filter by centrifugation at 14,000 rpm for 5 min. Solid parts (wet cakes) were investigated by XRPD immediately. Some samples with Form K were exposure to ambient condition and investigated by XRPD again.

## COc1cc(-c2cn(C)c(=O)c(C)c2C)cc(OC)c1CN1CC[C@H](N2CCN(c3ccc(N[C@H]4CCC(=O)NC4=O)cc3F)CC2)C(F)(F)C1 [Form A]
[1]
  water uptake: about 2.0%
[2]
  physical and chemical stability: physically and chemically stable
[3]; ball milling for 5 min
  behavior under ball milling: no obvious crystallinity decrease
[3]; compression, 2 to 10 MPa
  behavior under compression: no form change and no obvious crystallinity decrease even under 10 MPa

## COc1cc(-c2cn(C)c(=O)c(C)c2C)cc(OC)c1CN1CC[C@H](N2CCN(c3ccc(N[C@H]4CCC(=O)NC4=O)cc3F)CC2)C(F)(F)C1 [Pattern E]
[4]; equilibration at 50° C. for 1 week, 1,4-Dioxane/heptane (v:v = 1:1)
  XRPD: +Pattern B
[4]; equilibration at 50° C. for 1 week, 2-MeTHF
  XRPD: +Pattern B
[4]; equilibration at 50° C. for 1 week, Acetone
  XRPD: +Pattern B
[4]; equilibration at 50° C. for 1 week, Acetone/water (v:v = 36:64) a.w. = 0.90
  XRPD: +Pattern K
[4]; equilibration at 50° C. for 1 week, Acetone/water (v:v = 76:24) a.w. = 0.71
  XRPD: +Pattern B
[4]; equilibration at 50° C. for 1 week, Acetone/water (v:v = 92:8) a.w. = 0.50
  XRPD: +Pattern B
[4]; equilibration at 50° C. for 1 week, Acetonitrile
  XRPD: +Pattern F
[4]; equilibration at 50° C. for 1 week, DMSO/water (v:v = 23:77) a.w. = 0.91
  XRPD: +Pattern K
[4]; equilibration at 50° C. for 1 week, DMSO/water (v:v = 64:36) a.w. = 0.53
  XRPD: +Pattern B
[4]; equilibration at 50° C. for 1 week, Ethanol
  XRPD: +Pattern F
[4]; equilibration at 50° C. for 1 week, Ethyl acetate
  XRPD: +Pattern F
[4]; equilibration at 50° C. for 1 week, THF/heptane (v:v = 1:1)
  XRPD: +Pattern B
[4]; equilibration at 50° C. for 1 week, Toluene
  XRPD: +Pattern G
[5]; equilibration under a temperature cycle, 1,4-Dioxane/heptane (v:v = 1:1)
  XRPD: +Pattern B
[5]; equilibration under a temperature cycle, 2-MeTHF
  XRPD: +Pattern F
[5]; equilibration under a temperature cycle, Acetone
  XRPD: +Pattern B
[5]; equilibration under a temperature cycle, Acetone/water (v:v = 36:64)
  XRPD: +Pattern K
[5]; equilibration under a temperature cycle, Acetone/water (v:v = 76:24)
  XRPD: +Pattern A
[5]; equilibration under a temperature cycle, Acetone/water (v:v = 92:8)
  XRPD: +Pattern B
[5]; equilibration under a temperature cycle, Acetonitrile
  XRPD: +Pattern B
[5]; equilibration under a temperature cycle, DCM/heptane (v:v = 1:1)
  XRPD: +Pattern F
[5]; equilibration under a temperature cycle, DMSO/water (v:v = 64:36)
  XRPD: +Pattern F
[5]; equilibration under a temperature cycle, Ethanol
  XRPD: +Pattern F
[5]; equilibration under a temperature cycle, Ethyl acetate
  XRPD: +Pattern F
[5]; equilibration under a temperature cycle, Methanol
  XRPD: +Pattern B
[5]; equilibration under a temperature cycle, THF/heptane (v:v = 1:1)
  XRPD: +Pattern F
[5]; equilibration under a temperature cycle, Toluene
  XRPD: +Pattern A
[6]; 1,4-Dioxane
  Solubility (mg/mL), 25° C.: >250 mg/mL
  Solubility (mg/mL), 50° C.: >500 mg/mL
[6]; 2-MeTHF
  Solubility (mg/mL), 25° C.: 83 to 125 mg/mL
  Solubility (mg/mL), 50° C.: 250 to 500 mg/mL
[6]; Acetone
  Solubility (mg/mL), 25° C.: 20 to 25 mg/mL
  Solubility (mg/mL), 50° C.: 100 to 200 mg/mL
[6]; Acetonitrile
  Solubility (mg/mL), 25° C.: 5 to 6 mg/mL
  Solubility (mg/mL), 50° C.: <10 mg/mL
[6]; DCM
  Solubility (mg/mL), 25° C.: 125 to 250 mg/mL
[6]; DMSO
  Solubility (mg/mL), 25° C.: >250 mg/mL
  Solubility (mg/mL), 50° C.: >500 mg/mL
[6]; Ethanol
  Solubility (mg/mL), 25° C.: 6 to 8 mg/mL
  Solubility (mg/mL), 50° C.: 16 to 25 mg/mL
[6]; Ethyl acetate
  Solubility (mg/mL), 25° C.: 6 to 8 mg/mL
  Solubility (mg/mL), 50° C.: 14 to 20 mg/mL
[6]; Heptane
  Solubility (mg/mL), 25° C.: <5 mg/mL
  Solubility (mg/mL), 50° C.: <10 mg/mL
[6]; MTBE (Methyl tert-butyl ether)
  Solubility (mg/mL), 25° C.: <5 mg/mL
[6]; MTBE
  Solubility (mg/mL), 50° C.: <10 mg/mL
[6]; Methanol
  Solubility (mg/mL), 25° C.: 8 to 13 mg/mL
  Solubility (mg/mL), 50° C.: 18 to 22 mg/mL
[6]; Methanol/water (v:v = 95:5)
  Solubility (mg/mL), 25° C.: 8 to 13 mg/mL
  Solubility (mg/mL), 50° C.: 14 to 20 mg/mL
[6]; THF (Tetrahydrofuran)
  Solubility (mg/mL), 25° C.: >250 mg/mL
[6]; THF
  Solubility (mg/mL), 50° C.: >500 mg/mL
[6]; Toluene
  Solubility (mg/mL), 25° C.: <5 mg/mL
  Solubility (mg/mL), 50° C.: <10 mg/mL
[6]; Water
  Solubility (mg/mL), 25° C.: <5 mg/mL
  Solubility (mg/mL), 50° C.: <10 mg/mL
[7]; 1,4-dioxane/heptane (v:v = 1:1)
  XRPD after equilibration at 25° C. for 2 weeks: +Pattern B
[7]; 2-MeTHF
  XRPD after equilibration at 25° C. for 2 weeks: +Pattern B
[7]; Acetone
  XRPD after equilibration at 25° C. for 2 weeks: +Pattern B
[7]; Acetone/water (v:v = 36:64) a.w. = 0.90
  XRPD after equilibration at 25° C. for 2 weeks: +Pattern K
[7]; Acetone/water (v:v = 76:24) a.w. = 0.70
  XRPD after equilibration at 25° C. for 2 weeks: +Pattern B
[7]; Acetone/water (v:v = 92:8) a.w. = 0.50
  XRPD after equilibration at 25° C. for 2 weeks: +Pattern B
[7]; Acetonitrile
  XRPD after equilibration at 25° C. for 2 weeks: +Pattern B
[7]; DCM/heptane (v:v = 1:1)
  XRPD after equilibration at 25° C. for 2 weeks: +Pattern F
[7]; DMSO/water (v:v = 23:77) a.w. = 0.91
  XRPD after equilibration at 25° C. for 2 weeks: +Pattern K
[7]; Ethanol
  XRPD after equilibration at 25° C. for 2 weeks: +Pattern A
[7]; Ethyl acetate
  XRPD after equilibration at 25° C. for 2 weeks: +Pattern F
[7]; Methanol
  XRPD after equilibration at 25° C. for 2 weeks: +Pattern K
[7]; THF/heptane (v:v = 1:1)
  XRPD after equilibration at 25° C. for 2 weeks: +Pattern B
[7]; Toluene
  XRPD after equilibration at 25° C. for 2 weeks: +Pattern K
